Results on 13 molecules are retold here after US5478864A, “Method for disinfection using a 1,n-bis(N^5 -trifluoromethyl-phenyl-N^1 -biguanido)-alkane” (Mitsubishi Materials Corp., priority 1991, dated 1995).

Converted amounts (≈) assume the structure as drawn.

In one assay the test system is Escherichia coli IID 951. Briefly: minimum growth inhibition concentration, agar dilution. Format: cell-based. As to conditions: IID951, Mueller-Hinton agar, IID 951, read-out: MIC. The protocol: (§1) Germicidal activity of the compound prepared in Example 1 (Compound I) was evaluated by the minimum growth inhibition concentration method (based on the standard method stipulated by Japan Society of Chemotherapy) and the phenol coefficient method.
(§2) A portion of the digluconate salt of the compound of Example 1 was dissolved in water and the solution was heated to dryness on a water bath. The dried salt was dissolved in acetic acid (potentiometric titration grade) and the concentration thereof was determined by potentiometric titration using a perchloric acid solution. The gluconate acid salt solution, whose concentration was thus determined, was diluted to predetermined concentrations with sterilized water. Each 1 ml of the solution of each concentration was placed in a Petri dish, 9 ml of Mueller-Hinton agar (supplied by Difco) was added thereto and well mixed. Thus sensitivity test media were prepared. The concentrations of the compound were 200 μg/ml and 2^n times wherein (n=-8 to 2). Separately, microorganism strains indicated in Table 1 were subcultured in propagation media (using Mueller-Hinton broth supplied by Difco) at 37° C. for 24 hours. The microorganism concentration was adjusted to 10^6 /ml. The thus obtained cultures were respectively inoculated on a series of sensitivity measuring culture media using an inoculation rod. […] The results are shown in Table 1 together with the result on chlorhexidine as a control.
(§3) Compounds of formula I, wherein the trifluoromethyl group is located at the p-position and n is 2, 3, 5, 8 and 11, were prepared starting from ethylene diamine dichloride, 1,3-propane diamine dichloride, 1,5-pentane diamine dichloride, 1,8-octane diamine dichloride or 1,11-undecane diamine dichloride, sodium dicyanamide and 4-trifluoromethyl aniline hydrochloride in accordance with the procedures as described above and minimum growth inhibition concentration (MIC) was determined in the same manner as above.
(§4) Disinfecting effect of the above-prepared compounds was tested by measurement of minimum growth inhibition concentration and by the test for immediate effect in the same manner as in Example 3.
(§5) Compounds of formula I, wherein the trifluoromethyl group is located at the m-position and n is 2, 3, 5 and 8, 11 were prepared starting from ethylene diamine dihydrochloride, 1,3-propane diamine dihydrochloride, 1,5-pentane diamine dihydrochloride, 1,8-octane diamine dihydrochloride or 1,11-undecane diamine dihydrochloride, sodium dicyanamide and 3-trifluoromethylaniline hydrochloride in accordance with the procedures of Example 4 and germicidal activity thereof were determined in the same manner.

In assay [1] the test system is Pseudomonas aeruginosa IID 1042. The assay is described as above. As to conditions: Pseudomonas aeruginosa, IID1042, Mueller-Hinton agar, read-out: MIC. The format is cell-based. The protocol:
as §1, §2, §3, §4, §5

Assay [2] relates to Serratia marcescens IID 602. Described as above. The format is cell-based. As to conditions: IID602, Mueller-Hinton agar, IID 602, read-out: MIC. The protocol:
as §1, §2, §3, §4, §5

For assay [3], the system named is Staphylococcus aureus FDA 209-P. The description is as above. Format: cell-based. As to conditions: FDA209, Mueller-Hinton agar. The protocol: as §1, §2, §3, §4, §5
For the next assay, the system named is dental plaque. The following applies: Warner et al, 1973; cited from earlier work.

What is called MIC is the lowest concentration that inhibits growth of the organism. As for `N=C(NCCCCCCCCCCCNC(=N)NC(=N)Nc1cccc(C(F)(F)F)c1)NC(=N)Nc1cccc(C(F)(F)F)c1` [n = 11 (m-position)], the MIC was found to be 25 µg/mL (≈ 38.9 µM) with Escherichia coli IID 951, 400 µg/mL (≈ 622 µM) in assay [1], 100 µg/mL (≈ 156 µM) in assay [2] and 12.5 µg/mL (≈ 19.4 µM) in assay [3].

Turning to `N=C(NCCCCCNC(=N)NC(=N)Nc1cccc(C(F)(F)F)c1)NC(=N)Nc1cccc(C(F)(F)F)c1` [n = 5 (m-position)], the MIC in the assay with Escherichia coli IID 951 is 3.13 µg/mL (≈ 5.6 µM); in assay [1] it was 12.5 µg/mL (≈ 22.4 µM); in assay [2], 6.25 µg/mL (≈ 11.2 µM); in assay [3], 0.78 µg/mL (≈ 1.4 µM).

For `N=C(NCCCCCCCCNC(=N)NC(=N)Nc1ccc(C(F)(F)F)cc1)NC(=N)Nc1ccc(C(F)(F)F)cc1` [n = 8 (p-position)], the MIC with Escherichia coli IID 951 amounted to 1.56 µg/mL (≈ 2.6 µM); in assay [1], 25 µg/mL (≈ 41.6 µM); in assay [2], 6.25 µg/mL (≈ 10.4 µM); in assay [3], 1.56 µg/mL (≈ 2.6 µM).

For `N=C(NCCCCCCNC(=N)NC(=N)NC12CC3CC(CC(C3)C1)C2)NC(=N)NC12CC3CC(CC(C3)C1)C2` [bis-1-adamanthyl-substituted derivatives], the antiplaque activity result with dental plaque is on record as “at the same level as chlorhexidin or better”.

With `N=C(NCCNC(=N)NC(=N)Nc1ccc(C(F)(F)F)cc1)NC(=N)Nc1ccc(C(F)(F)F)cc1` [n = 2 (p-position)], the MIC in the assay on Escherichia coli IID 951 worked out at 12.5 µg/mL (≈ 24.2 µM); in assay [1], 200 µg/mL (≈ 387 µM); in assay [2], 50 µg/mL (≈ 96.8 µM); in assay [3] it was 25 µg/mL (≈ 48.4 µM).

`N=C(NCCNC(=N)NC(=N)Nc1cccc(C(F)(F)F)c1)NC(=N)Nc1cccc(C(F)(F)F)c1` [n = 2 (m-position)]: the MIC with Escherichia coli IID 951 was 12.5 µg/mL (≈ 24.2 µM); in assay [1] it was 200 µg/mL (≈ 387 µM); in assay [2] it was 50 µg/mL (≈ 96.8 µM); in assay [3], 12.5 µg/mL (≈ 24.2 µM).

On to `N=C(NCCCCCCCCCCCNC(=N)NC(=N)Nc1ccc(C(F)(F)F)cc1)NC(=N)Nc1ccc(C(F)(F)F)cc1` [n = 11 (p-position)], for which the MIC came to 50 µg/mL (≈ 77.8 µM) with Escherichia coli IID 951, 400 µg/mL (≈ 622 µM) in assay [1], 100 µg/mL (≈ 156 µM) in assay [2] and 12.5 µg/mL (≈ 19.4 µM) in assay [3].

As for `N=C(NCCCCCCNC(=N)NC(=N)NC1CCCCC1)NC(=N)NC1CCCCC1` [bis-cyclohexyl-substituted], the antiplaque activity entry in the assay with dental plaque is “at the same level as chlorhexidin or better”.

Consider `N=C(NCCCCCCNC(=N)NC(=N)Nc1ccccc1)NC(=N)Nc1ccccc1` [bis-phenyl-substituted derivative], for which the antiplaque activity entry in the assay with dental plaque is on record as “no antiplaque activity”.

Consider `N=C(NCCCCCNC(=N)NC(=N)Nc1ccc(C(F)(F)F)cc1)NC(=N)Nc1ccc(C(F)(F)F)cc1` [n = 5 (p-position)], for which the MIC with Escherichia coli IID 951 is 3.13 µg/mL (≈ 5.6 µM); in assay [1] it was 12.5 µg/mL (≈ 22.4 µM); in assay [2], 6.25 µg/mL (≈ 11.2 µM); in assay [3], 0.78 µg/mL (≈ 1.4 µM).

Regarding `N=C(NCCCCCCCCNC(=N)NC(=N)Nc1cccc(C(F)(F)F)c1)NC(=N)Nc1cccc(C(F)(F)F)c1` [n = 8 (m-position)], the MIC with Escherichia coli IID 951 stood at 1.56 µg/mL (≈ 2.6 µM); in assay [1], 25 µg/mL (≈ 41.6 µM); in assay [2] it was 6.25 µg/mL (≈ 10.4 µM); in assay [3] it was 1.56 µg/mL (≈ 2.6 µM).

For the molecule `N=C(NCCCNC(=N)NC(=N)Nc1cccc(C(F)(F)F)c1)NC(=N)Nc1cccc(C(F)(F)F)c1` [n = 3 (m-position)], the MIC in the assay with Escherichia coli IID 951 came to 3.13 µg/mL (≈ 5.9 µM); in assay [1], 50 µg/mL (≈ 94.3 µM); in assay [2], 12.5 µg/mL (≈ 23.6 µM); in assay [3] it was 3.13 µg/mL (≈ 5.9 µM).

As to `N=C(NCCCNC(=N)NC(=N)Nc1ccc(C(F)(F)F)cc1)NC(=N)Nc1ccc(C(F)(F)F)cc1` [n = 3 (p-position)], the MIC is 1.56 µg/mL (≈ 2.94 µM) in the assay with Escherichia coli IID 951, 50 µg/mL (≈ 94.3 µM) in assay [1], 6.25 µg/mL (≈ 11.8 µM) in assay [2] and 0.78 µg/mL (≈ 1.47 µM) in assay [3].
